Laboratory results as given in ChEMBL document CHEMBL1121815, “Chemically reactive estrogens: synthesis and estrogen receptor interactions of hexestrol ether derivatives and 4-substituted deoxyhexestrol derivatives bearing alkylating functions” (J Med Chem, 1981).

What was measured:
[1] = target: T1, Estrogen receptor (Ovis aries) (UniProt P49885+Q9TU15); assay: Binding affinity against estrogen receptor in lamb uterine cytosol, relative to that of [3H]estradiol; type: protein assay
[2] = target: T1, Estrogen receptor (Ovis aries); assay: Inactivation of lamb uterine estrogen receptor; type: protein assay; parameters: concentration or dose not given beside the values
[3] = Half life was determined; type: ADME; details: rat

SMILES	Binding affinity [1] [%]	Inactivation [2] [%]	half-life [3] [min]
CC[C@H](c1ccc(O)cc1)[C@@H](CC)c1ccc(C#N)cc1	5.2		
CC[C@H](c1ccc(O)cc1)[C@@H](CC)c1ccc(C(=O)CCl)cc1	0.44	29	30
CC[C@H](c1ccc(O)cc1)[C@@H](CC)c1ccc(S(=O)(=O)F)cc1	0.33	24	60
CC[C@H](c1ccc(O)cc1)[C@@H](CC)c1ccc(CBr)cc1	9.3	70	150
CC[C@H](c1ccc(O)c(CCCO)c1)[C@@H](CC)c1ccc(O)cc1	12		
CC[C@H](c1ccc(O)cc1)[C@@H](CC)c1ccc(C(C)=O)cc1	4.1		
CC[C@H](c1ccc(O)cc1)[C@@H](CC)c1ccc(S(=O)(=O)N=[N+]=[N-])cc1	1.8		
CC[C@H](c1ccc(O)cc1)[C@@H](CC)c1ccc(C(=O)CBr)cc1	1.1	44	< 30
CC[C@H](c1ccc(O)cc1)[C@@H](CC)c1ccc(N=[N+]=[N-])cc1	5.7		
CC[C@H](c1ccc(O)cc1)[C@@H](CC)c1ccc(OCC(=O)C=[N+]=[N-])cc1	2		
CC[C@H](c1ccc(O)cc1)[C@@H](CC)c1ccc(CO)cc1	40		
CC[C@H](c1ccc(O)cc1)[C@@H](CC)c1ccc(N)cc1	95		
CC[C@H](c1ccc(O)cc1)[C@@H](CC)c1ccc(OCCOCCCl)cc1	0.9		
CCOC(=O)COc1ccc([C@H](CC)[C@H](CC)c2ccc(O)cc2)cc1	2.2		
CCOC(=N)c1ccc([C@H](CC)[C@H](CC)c2ccc(O)cc2)cc1	1.9		
CC[C@H](c1ccc(O)cc1)[C@@H](CC)c1ccc([N+](=O)[O-])cc1	11		
CCOCc1ccc([C@H](CC)[C@H](CC)c2ccc(O)cc2)cc1	4.9		
C=CCc1cc([C@@H](CC)[C@@H](CC)c2ccc(O)cc2)ccc1O	54		
CC[C@H](c1ccc(O)cc1)[C@@H](CC)c1ccc(CCl)cc1	8	63	78
CC[C@H](c1ccc(O)cc1)[C@@H](CC)c1ccc(C(=O)O)cc1	1.8		

The next lines start with the values.

Binding affinity [1] [%]	Inactivation [2] [%]	half-life [3] [min]	SMILES
19			CC[C@H](c1ccc(O)cc1)[C@@H](CC)c1ccc(OC)cc1
7.4	44	240	CC[C@H](c1ccc(O)cc1)[C@@H](CC)c1ccc(OCC2CO2)cc1 (stereo partly drawn)
4	24	30	CC[C@H](c1ccc(O)cc1)[C@@H](CC)c1ccc(OCC(O)CCl)cc1 (stereo partly drawn)
0.12			CC[C@H](c1ccc(O)cc1)[C@@H](CC)c1ccc(OCC(=O)O)cc1
5.4			C=CCOc1ccc([C@H](CC)[C@H](CC)c2ccc(O)cc2)cc1
6.9			CC[C@H](c1ccc(O)cc1)[C@@H](CC)c1ccc(OCC(O)CO)cc1 (stereo partly drawn)
11			CC[C@H](c1ccc(O)cc1)[C@@H](CC)c1ccc(OCC(C)=O)cc1
9.5	24	< 30	CC[C@H](c1ccc(O)cc1)[C@@H](CC)c1ccc(OCC(=O)CBr)cc1
3.2	36	30	CC[C@H](c1ccc(O)cc1)[C@@H](CC)c1ccc(OCC(O)CBr)cc1 (stereo partly drawn)
21			CC[C@H](c1ccc(O)cc1)[C@@H](CC)c1ccc(OCCO)cc1
10	31	15	CC[C@H](c1ccc(O)cc1)[C@@H](CC)c1ccc(OCC(=O)CCl)cc1
4.3			CC[C@H](c1ccc(O)cc1)[C@@H](CC)c1ccc(OCC(C)O)cc1 (stereo partly drawn)
17			CCC(c1ccc(O)cc1)C(CC)c1ccc(OC)cc1 (stereo not drawn)
